Experimental data from patent US20210130346A1, “Bromodomain Inhibitors” (AbbVie Inc., priority 2017, published 2021).

Target: BRD4 (BDI_K57-E168) (Homo sapiens, UniProt O60885)
Test: TR-FRET bromodomain binding assay, BRD4 first bromodomain (BDI)
Conditions: mean Ki; 12 nM His tagged BRD4 (BDI_K57-E168), 100 nM Alexa647 probe; Ki calculated from IC50, probe Kd and probe concentration
Method: A time-resolved fluorescence resonance energy transfer (TR-FRET) assay was used to determine the affinities of compounds of the Examples listed in Table 1 for each bromodomain of BRD4. […] An Alexa647-labeled BET-inhibitor was used as the fluorescent probe in the assay.
Compound dilution series were prepared in DMSO via an approximately 3-fold serial dilution. Compound dilutions were added directly into white, low-volume assay plates (Perkin Elmer Proxiplate 384 Plus# 6008280) using a Labcyte Echo in conjunction with Labcyte Access and Thermo Multidrop CombinL robotics. Compounds were then suspended in eight microliters (μL) of assay buffer (20 mM Sodium Phosphate, pH 6.0, 50 mM NaCl, 1 mM Ethylenediaminetetraacetic acid disodium salt dihydrate, 0.01% Triton X-100, 1 mM DL-Dithiothreitol) containing His-tagged bromodomain, Europium-conjugated anti-His antibody (Invitrogen PV5596) and Alexa-647-conjugated probe.
After a one-hour equilibration at room temperature, TR-FRET ratios were determined using an Envision multilabel plate reader (Ex 340, Em 495/520).
TR-FRET data were normalized to the means of 24 no-compound controls (“high”) and 8 controls containing 1 μM un-labeled probe (“low”). Percent inhibition was plotted as a function of compound concentration and the data were fit with the 4 parameter logistic equation to obtain IC50s. Inhibition constants (Ki) were calculated from the IC50s, probe Kd and probe concentration.

| Ki [µM] | SMILES |
| --- | --- |
| 0.531 | CN1C(=O)[C@@]2(C[C@H]2c2cn(C)c(=O)c3[nH]c(-c4cnn(C)c4)cc23)c2ccccc21 (racemic) [Example 33, rac-(1R,2S)-1′-methyl-2-[6-methyl-2-(1-methyl-1H-pyrazol-4-yl)-7-oxo-6,7-dihydro-1H-pyrrolo[2,3-c]pyridin-4-yl]spiro[cyclopropane-1,3′-indol]-2′(1H)-one] |
| 2.82 | CN1C(=O)[C@@]2(C[C@H]2c2cn(C)c(=O)c3[nH]c(-c4ccnc(C(F)(F)F)c4)cc23)c2ccccc21 [Example 53, (1R,2S)-1′-methyl-2-{6-methyl-7-oxo-2-[2-(trifluoromethyl)pyridin-4-yl]-6,7-dihydro-1H-pyrrolo[2,3-c]pyridin-4-yl}spiro[cyclopropane-1,3′-indol]-2′(1H)-one] |
| 2.82 | CN1C(=O)[C@@]2(C[C@H]2c2cn(C)c(=O)c3[nH]c(-c4ncco4)cc23)c2ccccc21 (racemic) [Example 42, rac-(1R,2S)-1′-methyl-2-[6-methyl-2-(1,3-oxazol-2-yl)-7-oxo-6,7-dihydro-1H-pyrrolo[2,3-c]pyridin-4-yl]spiro[cyclopropane-1,3′-indol]-2′(1H)-one] |
| 3.42 | CN1C(=O)[C@@]2(C[C@H]2c2cn(C)c(=O)c3[nH]c(-c4ccncn4)cc23)c2ccccc21 (racemic) [Example 55, rac-(1R,2S)-1′-methyl-2-[6-methyl-7-oxo-2-(pyrimidin-4-yl)-6,7-dihydro-1H-pyrrolo[2,3-c]pyridin-4-yl]spiro[cyclopropane-1,3′-indol]-2′(1H)-one] |
| 1.42 | CN1C(=O)[C@]2(C[C@@H]2c2cn(C)c(=O)c3[nH]c(-c4cccnc4)cc23)c2ccccc21 [Example 48, (1S,2R)-1′-methyl-2-[6-methyl-7-oxo-2-(pyridin-3-yl)-6,7-dihydro-1H-pyrrolo[2,3-c]pyridin-4-yl]spiro[cyclopropane-1,3′-indol]-2′(1H)-one] |
| 2.95 | Cc1ccc2c(c1)N(C)C(=O)[C@@]21C[C@H]1c1cn(C)c(=O)c2[nH]c(C(=O)NC3CC3)cc12 (racemic) [Example 13, rac-N-cyclopropyl-4-[(1R,2S)-1′,6′-dimethyl-2′-oxo-1′,2′-dihydrospiro[cyclopropane-1,3′-indol]-2-yl]-6-methyl-7-oxo-6,7-dihydro-1H-pyrrolo[2,3-c]pyridine-2-carboxamide] |
| 5.42 | CN1C(=O)[C@@]2(C[C@H]2c2cn(C)c(=O)c3[nH]c(C(=O)NC4CC4)cc23)c2ccccc21 (racemic) [Example 2, rac-N-cyclopropyl-6-methyl-4-[(1R,2S)-1′-methyl-2′-oxo-1′,2′-dihydrospiro[cyclopropane-1,3′-indol]-2-yl]-7-oxo-6,7-dihydro-1H-pyrrolo[2,3-c]pyridine-2-carboxamide] |
| 9.22 | Cn1cc([C@@H]2C[C@@]23C(=O)N(C2CC2)c2ccccc23)c2cc(C(=O)NC3CC3)[nH]c2c1=O (racemic) [Example 26, rac-N-cyclopropyl-4-[(1R,2S)-1′-cyclopropyl-2′-oxo-1′,2′-dihydrospiro[cyclopropane-1,3′-indol]-2-yl]-6-methyl-7-oxo-6,7-dihydro-1H-pyrrolo[2,3-c]pyridine-2-carboxamide] |
| 1.49 | CN1C(=O)[C@@]2(C[C@H]2c2cn(C)c(=O)c3[nH]c(-c4nccn4C)cc23)c2ccccc21 (racemic) [Example 41, rac-(1R,2S)-1′-methyl-2-[6-methyl-2-(1-methyl-1H-imidazol-2-yl)-7-oxo-6,7-dihydro-1H-pyrrolo[2,3-c]pyridin-4-yl]spiro[cyclopropane-1,3′-indol]-2′(1H)-one] |
| 1.08 | CN1C(=O)[C@@]2(C[C@H]2c2cn(C)c(=O)c3[nH]c(-c4cncnc4)cc23)c2ccccc21 (racemic) [Example 54, rac-(1R,2S)-1′-methyl-2-[6-methyl-7-oxo-2-(pyrimidin-5-yl)-6,7-dihydro-1H-pyrrolo[2,3-c]pyridin-4-yl]spiro[cyclopropane-1,3′-indol]-2′(1H)-one] |
| > 13 | Cn1cc(C2CC23C(=O)N(CC(F)(F)F)c2ccccc23)c2cc(C(=O)NC3CC3)[nH]c2c1=O (racemic) [Example 23, rac-N-cyclopropyl-6-methyl-7-oxo-4-[(1R,2S)-2′-oxo-′-(2,2,2-trifluoroethyl)-1′,2′-dihydrospiro[cyclopropane-1,3′-indol]-2-yl]-6,7-dihydro-1H-pyrrolo[2,3-c]pyridine-2-carboxamide] |
| > 13 | CN1C(=O)[C@@]2(C[C@H]2c2cn(C)c(=O)c3[nH]c(-c4ccccn4)cc23)c2ccccc21 (racemic) [Example 45, rac-(1R,2S)-1′-methyl-2-[6-methyl-7-oxo-2-(pyridin-2-yl)-6,7-dihydro-1H-pyrrolo[2,3-c]pyridin-4-yl]spiro[cyclopropane-1,3′-indol]-2′(1H)-one] |
| > 13 | CN1C(=O)[C@@]2(C[C@H]2c2cn(C)c(=O)c3[nH]c(C(=O)NC4CC4)cc23)c2ccccc21 [Example 4, N-cyclopropyl-6-methyl-4-[(1R,2S)-1′-methyl-2′-oxo-1′,2′-dihydrospiro[cyclopropane-1,3′-indol]-2-yl]-7-oxo-6,7-dihydro-1H-pyrrolo[2,3-c]pyridine-2-carboxamide] |
| 7.34 | Cn1cc([C@H]2C[C@]23C(=O)Nc2ccccc23)c2cc(C(=O)NC3CC3)[nH]c2c1=O (single isomer, unassigned) [Example 20] |
| 2.76 | CN1C(=O)[C@@]2(C[C@H]2c2cn(C)c(=O)c3[nH]c(-c4ccnnc4)cc23)c2ccccc21 (racemic) [Example 56, rac-(1R,2S)-1′-methyl-2-[6-methyl-7-oxo-2-(pyridazin-4-yl)-6,7-dihydro-1H-pyrrolo[2,3-c]pyridin-4-yl]spiro[cyclopropane-1,3′-indol]-2′(1H)-one] |
| > 13 | CN1C(=O)[C@]2(C[C@@H]2c2cn(C)c(=O)c3[nH]c(C(=O)O)cc23)c2ccccc21 (single isomer, unassigned) [Example 6] |
| 2.41 | CN1C(=O)[C@@]2(C[C@H]2c2cn(C)c(=O)c3[nH]c(C4CN(C(=O)OC(C)(C)C)C4)cc23)c2ccccc21 (racemic) [Example 32, rac-tert-butyl 3-{6-methyl-4-[(1R,2S)-1′-methyl-2′oxo-1′,2′-dihydrospiro[cyclopropane-1,3′-indol]-2-yl]-7-oxo-6,7-dihydro-1H-pyrrolo [2,3-c]pyridin-2-yl}azetidine-1-carboxylate] |
| 0.811 | CN1C(=O)[C@@]2(C[C@H]2c2cn(C)c(=O)c3[nH]c(C4CC4)cc23)c2ccccc21 (racemic) [Example 31, rac-(1R,2S)-2-(2-cyclopropyl-6-methyl-7-oxo-6,7-dihydro-1H-pyrrolo[2,3-c]pyridin-4-yl)-1′-methylspiro[cyclopropane-1,3′-indol]-2′(1H)-one] |
| 1.25 | CN1C(=O)[C@@]2(C[C@H]2c2cn(C)c(=O)c3[nH]c(-c4cc[nH]n4)cc23)c2ccccc21 (racemic) [Example 37, rac-(1R,2S)-1′-methyl-2-[6-methyl-7-oxo-2-(1H-pyrazol-3-yl)-6,7-dihydro-1H-pyrrolo[2,3-c]pyridin-4-yl]spiro[cyclopropane-1,3′-indol]-2′(1H)-one] |
| 5.04 | CN1C(=O)[C@]2(C[C@@H]2c2cn(C)c(=O)c3[nH]c(C(=O)NC4CC4)cc23)c2cc(F)ccc21 [Example 17, N-cyclopropyl-4-[(1S,2R)-5′-fluoro-′-methyl-2′-oxo-1′,2′-dihydrospiro[cyclopropane-1,3′-indol]-2-yl]-6-methyl-7-oxo-6,7-dihydro-1H-pyrrolo[2,3-c]pyridine-2-carboxamide] |
| > 13 | COCCN1C(=O)[C@@]2(C[C@H]2c2cn(C)c(=O)c3[nH]c(C(=O)NC4CC4)cc23)c2ccccc21 (racemic) [Example 27, rac-N-cyclopropyl-4-[(1R,2S)-1′-(2-methoxyethyl)-2′-oxo-1′,2′-dihydrospiro[cyclopropane-1,3′-indol]-2-yl]-6-methyl-7-oxo-6,7-dihydro-1H-pyrrolo[2,3-c]pyridine-2-carboxamide] |
| > 13 | Cc1cc(-c2cc3c([C@H]4C[C@@]45C(=O)N(C)c4ccccc45)cn(C)c(=O)c3[nH]2)on1 (racemic) [Example 40, rac-(1R,2R)-1′-methyl-2-[6-methyl-2-(3-methyl-1,2-oxazol-5-yl)-7-oxo-6,7-dihydro-1H-pyrrolo[2,3-c]pyridin-4-yl]spiro[cyclopropane-1,3′-indol]-2′(1H)-one] |
| 4.84 | CN1C(=O)[C@@]2(C[C@H]2c2cn(C)c(=O)c3[nH]c(C(=O)NC4CC4)cc23)c2cccc(Br)c21 (racemic) [Example 29, rac-4-[(1R,2S)-7′-bromo-1′-methyl-2′-oxo-1′,2′-dihydrospiro[cyclopropane-1,3′-indol]-2-yl]-N-cyclopropyl-6-methyl-7-oxo-6,7-dihydro-1H-pyrrolo[2,3-c]pyridine-2-carboxamide] |
| > 13 | Cn1cc([C@@H]2C[C@@]23C(=O)Nc2ccccc23)c2cc(C(=O)NC3CC3)[nH]c2c1=O (single isomer, unassigned) [Example 21] |
| 7.43 | Cn1cc([C@@H]2C[C@@]23C(=O)N(Cc2ccc(N)cc2)c2ccccc23)c2cc(C(=O)NC3CC3)[nH]c2c1=O (racemic) [Example 28, rac-4-{(1R,2S)-1′-[(4-aminophenyl)methyl]-2′oxo-1′,2′-dihydrospiro[cyclopropane-1,3′-indol]-2-yl}-N-cyclopropyl-6-methyl-7-oxo-6,7-dihydro-1H-pyrrolo [2,3-c]pyridine-2-carboxamide] |
